Laboratory results taken from patent US8044208B2 (Sanofi-Aventis, priority 2005, dated 2011).

Target: T1, TAFIa (Homo sapiens, UniProt Q96IY4)
T1 construct: purchased American Diagnostica 874TAFIA
T1 sequence (Q96IY4 115-423): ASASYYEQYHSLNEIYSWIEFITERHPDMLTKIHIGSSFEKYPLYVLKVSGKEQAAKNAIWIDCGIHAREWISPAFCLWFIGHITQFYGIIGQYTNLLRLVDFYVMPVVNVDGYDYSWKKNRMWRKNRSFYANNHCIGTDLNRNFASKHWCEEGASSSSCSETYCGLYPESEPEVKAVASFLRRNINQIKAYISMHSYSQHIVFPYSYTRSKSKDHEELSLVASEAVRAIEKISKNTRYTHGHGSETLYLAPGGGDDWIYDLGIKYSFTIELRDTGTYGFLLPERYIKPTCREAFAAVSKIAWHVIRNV
Experiment: TAFIa enzyme assay (Actichrome plasma TAFI activity kit)
Format: biochemical
Conditions: 15 min preincubation at room temperature, read at 420 nm, duplicate determination
Description: The prepared substances were tested for TAFIa inhibition using the Actichrome plasma TAFI activity kit from American Diagnostica (Pr. No. 874). This entailed adding 29 μl of assay buffer (20 mM Hepes, 150 mM NaCl, pH 7.4) and 10 μl of TAFIa (American Diagnostica Pr. No. 874TAFIA; […]) to 1 μl of 5 mM DMSO solution of the substance and incubating in a 96 half-well microtiter plate at room temperature for 15 minutes. The enzymic reaction was started by adding 10 μl of TAFIa developer (prediluted 1:2 with water). The time course of the reaction was followed at 420 nm in a microtiter plate reader (SpectraMax plus 384; Molecular Devices) for 15 minutes. The IC50 values were calculated from the averaged values (duplicate determination) of serial dilutions of the substance with the aid of the Software Grafit 4 (Erithacus Software, UK).

| IC50 [nM] | SMILES |
| --- | --- |
| 41 | Nc1ccc(CC(C(=O)O)c2cn(Cc3cc(-c4ccc(Cl)s4)on3)cn2)cn1 (centres unmarked) [Example 1, 3-(6-Aminopyridin-3-yl)-2-{1-[5-(5-chlorothiophen-2-yl)isoxazol-3-ylmethyl]-1H-imidazol-4-yl}propionic acid] |
| 326 | Nc1ccc(CC(C(=O)O)c2cn(Cc3cnc(-c4ccc(Cl)s4)s3)cn2)cn1 (centres unmarked) [Example 3, 3-(6-Aminopyridin-3-yl)-2-{1-[2-(5-chlorothiophen-2-yl)thiazol-5-ylmethyl]-1H-imidazol-4-yl}propionic acid] |
| 104 | COc1ccc(-c2cc(Cn3cnc(C(Cc4ccc(N)nc4)C(=O)O)c3)no2)cc1 (centres unmarked) [Example 5, 3-(6-Aminopyridin-3-yl)-2-{1-[5-(4-methoxyphenyl)isoxazol-3-ylmethyl]-1H-imidazol-4-yl}propionic acid] |
| 41 | Nc1ccc(CC(C(=O)O)c2cn(Cc3nnc(-c4ccc(Cl)cc4)s3)cn2)cn1 (centres unmarked) [Example 8, 3-(6-Aminopyridin-3-yl)-2-{1-[5-(4-chlorophenyl)-[1,3,4]thiadiazol-2-ylmethyl]-1H-imidazol-4-yl}propionic acid] |
| 169 | CC(C)(C)c1nnc(Cn2cnc(C(Cc3ccc(N)nc3)C(=O)O)c2)s1 (centres unmarked) [Example 9, 3-(6-Aminopyridin-3-yl)-2-[1-(5-tert-butyl-[1,3,4]thiadiazol-2-ylmethyl)-1H-imidazol-4-yl]propionic acid] |
| 258 | Nc1ccc(CC(C(=O)O)c2cn(Cc3noc(-c4ccc(C(F)(F)F)cc4)n3)cn2)cn1 (centres unmarked) [Example 10, 3-(6-Aminopyridin-3-yl)-2-{1-[5-(4-trifluoromethylphenyl)-[1,2,4]oxadiazol-3-ylmethyl]-1H-imidazol-4-yl}propionic acid] |
| 30 | Nc1ccc(CC(C(=O)O)c2cn(Cc3nnc(C4CC4)s3)cn2)cn1 (centres unmarked) [Example 12, 3-(6-Aminopyridin-3-yl)-2-[1-(5-cyclopropyl-[1,3,4]thiadiazol-2-ylmethyl)-1H-imidazol-4-yl]propionic acid] |
| 223 | COc1ccc(-c2nc(Cn3cnc(C(Cc4ccc(N)nc4)C(=O)O)c3)no2)cc1 (centres unmarked) [Example 15] |
| 745 | CC(C)(C)c1ccc(-c2noc(Cn3cnc(C(Cc4ccc(N)nc4)C(=O)O)c3)n2)cc1 (centres unmarked) [Example 17, 3-(6-Aminopyridin-3-yl)-2-{1-[3-(4′-tert-butylphenyl)-[1,2,4]oxadiazol-5-ylmethyl]-1H-imidazol-4-yl}propionic acid] |
| 326 | Cc1nc(-c2cc(Cn3cnc(C(Cc4ccc(N)nc4)C(=O)O)c3)no2)cs1 (centres unmarked) [Example 18, 3-(6-Aminopyridin-3-yl)-2-{1-[5-(2-methylthiazol-4-yl)isoxazol-3-ylmethyl]-1H-imidazol-4-yl}propionic acid] |
| 78 | COc1ccc(-c2nnc(Cn3cnc(C(Cc4ccc(N)nc4)C(=O)O)c3)s2)cc1 (centres unmarked) [Example 22, 3-(6-Aminopyridin-3-yl)-2-{1-[5-(4-methoxyphenyl)-[1,3,4]thiadiazol-2-ylmethyl]-1H-imidazol-4-yl}propionic acid] |
| 3 | CCC(C)c1ccc(-c2cc(Cn3cnc(C(Cc4ccc(N)nc4)C(=O)O)c3)no2)cc1 (centres unmarked) [Example 46, 3-(6-Aminopyridin-3-yl)-2-{1-[5-(4-sec-butylphenyl)isoxazol-3-ylmethyl]-1H-imidazol-4-yl}propionic acid] |
| 4 | Nc1ccc(C[C@H](C(=O)O)c2cn(Cc3cc(-c4ccc(Cl)s4)on3)cn2)cn1 [Example 58, (S)-3-(6-Aminopyridin-3-yl)-2-{1-[5-(5-chlorothiophen-2-yl)isoxazol-3-ylmethyl]-1H-imidazol-4-yl}propionic acid] |
| 26 | Cc1cc(CC(C(=O)O)c2cn(Cc3nnc(C4CC4)s3)cn2)cnc1N (centres unmarked) [Example 61, 3-(6-Amino-5-methylpyridin-3-yl)-2-[1-(5-cyclopropyl-[1,3,4]thiadiazol-2-ylmethyl)-1H-imidazol-4-yl]propionic acid] |
